Among the data in patent publication US8946203B2, “Benzodioxane inhibitors of leukotriene production” (Boehringer Ingelheim International GmbH, priority 2012, dated 2015) are IC50 values, retold here.

Like-named read-outs stand apart in the source and are kept apart here.

The target of one test is T1, human LTA4 hydrolase (Homo sapiens, UniProt P09960).
T1 sequence (P09960 1-611): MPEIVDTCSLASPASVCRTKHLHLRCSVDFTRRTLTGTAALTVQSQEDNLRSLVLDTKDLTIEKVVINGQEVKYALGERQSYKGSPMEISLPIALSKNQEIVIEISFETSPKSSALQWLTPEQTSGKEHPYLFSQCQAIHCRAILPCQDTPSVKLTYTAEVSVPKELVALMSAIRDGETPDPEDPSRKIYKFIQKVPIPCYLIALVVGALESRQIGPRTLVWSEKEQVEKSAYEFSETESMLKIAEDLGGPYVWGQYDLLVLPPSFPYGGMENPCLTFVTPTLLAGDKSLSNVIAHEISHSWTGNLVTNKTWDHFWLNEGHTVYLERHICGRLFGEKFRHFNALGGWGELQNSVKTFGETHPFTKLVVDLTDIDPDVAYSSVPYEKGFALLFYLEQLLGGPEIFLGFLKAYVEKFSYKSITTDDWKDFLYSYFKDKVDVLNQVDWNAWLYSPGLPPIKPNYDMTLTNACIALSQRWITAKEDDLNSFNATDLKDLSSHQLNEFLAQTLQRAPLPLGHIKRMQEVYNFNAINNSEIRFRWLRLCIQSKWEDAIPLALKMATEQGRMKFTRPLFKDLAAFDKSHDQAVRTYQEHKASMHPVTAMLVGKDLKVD
Briefly: LTA4H Enzyme assay (cleavage of Arg-AMC, fluorescence). It counts as biochemical. Put shortly:
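Peptidase activity of human LTA4H (1 nM final) on Arg-AMC (50 μM final), with compound, 1 h at room temperature. Buffer: 50 mM Tris-HCl pH 7.5, 100 mM KCl, 0.5% BSA.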

Test [1] concerns synthesis of LTB4 in human whole blood. Briefly: human whole blood (HWB) assay, LTB4 production inhibition after calcimycin stimulation. Format: cell-based. The following applies: heparinized human whole blood, calcimycin 20 μM, plasma LTB4 by HTRF. An outline of the steps: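 Heparinized human whole blood preincubated with compound 15 min at 37 °C, then stimulated with 20 μM (final) calcimycin for 30 min at 37 °C. Plasma LTB4 measured by antibody-based HTRF; IC50 reported.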
On the technique in general: Time-resolved FRET reads energy transfer from a long-lived donor to a nearby acceptor.

The mark [2] stands for this setting: LTA4H Enzyme 1 nM, Arg-AMC substrate 50 μM, room temperature 1 h, fluorescence, read-out: IC50 values of LTA4H Enzyme assay.

Regarding `O=C(CO)N1CCN(Cc2ccc([C@H]3COc4cccnc4O3)cc2)CC1` [Example 253, 1-{4-[(S)-4-(2,3-Dihydro-[1,4]dioxino[2,3-b]pyridin-3-yl)-benzyl]-piperazin-1-yl}-2-hydroxy-ethanone], the half-maximal inhibitory concentration (IC50) at human LTA4 hydrolase (setting [2]) was found to be 0.7 nM; in test [1] it was 110 nM.

As to `O=C(O)c1ccc(C2CN(Cc3ccc([C@H]4COc5ccccc5O4)cc3)C2)cc1` [Example 254, 4-{1-[(S)-4-(2,3-Dihydro-benzo[1,4]dioxin-2-yl)-benzyl]-azetidin-3-yl}-benzoic acid], the half-inhibitory concentration (IC50) at human LTA4 hydrolase (setting [2]) was 0.24 nM; in test [1] it was 84 nM.

In the case of `CC(C)(O)CNC(=O)C1CCN(Cc2ccc([C@H]3COc4cccnc4O3)cc2)CC1` [Example 255, 1-[(S)-4-(2,3-Dihydro-[1,4]dioxino[2,3-b]pyridin-3-yl)-benzyl]-piperidine-4-carboxylic acid (2-hydroxy-2-methyl-propyl)-amide], the IC50 on human LTA4 hydrolase (setting [2]) amounted to 0.17 nM; in test [1] it was 76 nM.

For the compound `CS(=O)(=O)CC(=O)N1C[C@@H]2C[C@H]1CN2Cc1ccc([C@H]2COc3cccnc3O2)cc1` [Example 256, 1-{(1S,4S)-5-[(S)-4-(2,3-Dihydro-[1,4]dioxino[2,3-b]pyridin-3-yl)-benzyl]-2,5-diaza-bicyclo[2.2.1]hept-2-yl}-2-methanesulfonyl-ethanone], the half-maximal inhibitory concentration (IC50) was determined as 0.49 nM at human LTA4 hydrolase (setting [2]) and 110 nM in test [1].

For the compound `COCC(=O)N1CCCN(Cc2ccc([C@H]3COc4cccnc4O3)cc2)CC1` [Example 257, 1-{4-[(S)-4-(2,3-Dihydro-[1,4]dioxino[2,3-b]pyridin-3-yl)-benzyl]-[1,4]diazepan-1-yl}-2-methoxy-ethanone], the values for the IC50 (on human LTA4 hydrolase (setting [2]); in test [1]) were 0.48 nM and 270 nM, respectively.

With `Nc1nc2c(s1)CN(Cc1ccc([C@H]3COc4cccnc4O3)cc1)CC2` [Example 258, 5-[(S)-4-(2,3-Dihydro-[1,4]dioxino[2,3-b]pyridin-3-yl)-benzyl]-4,5,6,7-tetrahydro-thiazolo[5,4-c]pyridin-2-ylamine], the IC50 at human LTA4 hydrolase (setting [2]) was 0.37 nM; in test [1], 210 nM.

In the case of `NC(=O)N[C@H]1C[C@H]2CC[C@@H](C1)N2Cc1ccc([C@H]2COc3cccnc3O2)cc1` [Example 259, {(endo)-8-[(S)-4-(2,3-Dihydro-[1,4]dioxino[2,3-b]pyridin-3-yl)-benzyl]-8-aza-bicyclo[3.2.1]oct-3-yl}-urea], the IC50 turned out to be 0.3 nM against human LTA4 hydrolase and 790 nM in test [1].

For the compound `CONC(=O)CC1CCN(Cc2ccc([C@H]3COc4cccnc4O3)cc2)CC1` [Example 260, 2-{1-[(S)-4-(2,3-Dihydro-[1,4]dioxino[2,3-b]pyridin-3-yl)-benzyl]-piperidin-4-yl}-N-methoxy-acetamide], the IC50 on human LTA4 hydrolase (setting [2]) was determined as 0.57 nM; in test [1], 100 nM.

On to `CN[C@H](C)C(=O)NC1CCN(Cc2ccc([C@H]3COc4cccnc4O3)cc2)CC1` [Example 261, (R)-N-{1-[(S)-4-(2,3-Dihydro-[1,4]dioxino[2,3-b]pyridin-3-yl)-benzyl]-piperidin-4-yl}-2-methylamino-propionamide], for which the half-inhibitory concentration (IC50) on human LTA4 hydrolase (setting [2]) is 2.5 nM; in test [1], 260 nM.

Consider `CC(C)(O)C(=O)NCC1CCN(Cc2ccc([C@H]3COc4cccnc4O3)cc2)CC1` [Example 262, N-{1-[(S)-4-(2,3-Dihydro-[1,4]dioxino[2,3-b]pyridin-3-yl)-benzyl]-piperidin-4-ylmethyl}-2-hydroxy-2-methyl-propionamide], for which the figures for the IC50 (on human LTA4 hydrolase (setting [2]); in test [1]) were 0.51 nM and 170 nM, respectively.

Consider `CS(=O)(=O)NC[C@@H]1[C@H]2CN(Cc3ccc([C@H]4COc5cccnc5O4)cc3)C[C@@H]12` [Example 263, N-{(1α,5α,6α)-3-[(S)-4-(2,3-Dihydro-[1,4]dioxino[2,3-b]pyridin-3-yl)-benzyl]-3-aza-bicyclo[3.1.0]hex-6-ylmethyl}-methanesulfonamide], for which the IC50 at human LTA4 hydrolase (setting [2]) amounted to 0.49 nM; in test [1], 130 nM.

On to `CC(=O)N1C[C@@H]2CC[C@H]1CN2Cc1ccc([C@H]2COc3cccnc3O2)cc1` [Example 264, 1-{(1S,4S)-5-[(S)-4-(2,3-Dihydro-[1,4]dioxino[2,3-b]pyridin-3-yl)-benzyl]-2,5-diaza-bicyclo[2.2.2]oct-2-yl}-ethanone], for which the half-maximal inhibitory concentration (IC50) at human LTA4 hydrolase (setting [2]) came out at 0.09 nM; in test [1], 17 nM.

In the case of `O=C(O)C1CCC(C2CCN(Cc3ccc([C@H]4COc5cccnc5O4)cc3)CC2)CC1` (stereo partly drawn) [Example 265, 4-{1-[(S)-4-(2,3-Dihydro-[1,4]dioxino[2,3-b]pyridin-3-yl)-benzyl]-piperidin-4-yl}-cyclohexanecarboxylic acid], the 50% inhibitory concentration (IC50) was 0.16 nM at human LTA4 hydrolase (setting [2]) and 150 nM in test [1].

For the compound `O=C(O)C1CCCN(Cc2ccc([C@H]3COc4ccccc4O3)cc2)CC1` (stereo partly drawn) [Example 266, 1-[(S)-4-(2,3-Dihydro-benzo[1,4]dioxin-2-yl)-benzyl]-azepane-4-carboxylic acid], the IC50 on human LTA4 hydrolase (setting [2]) was found to be 0.22 nM; in test [1] it was 98 nM.

Take `O=C(O)[C@H]1[C@@H]2CN(Cc3ccc([C@H]4COc5ccccc5O4)cc3)C[C@@H]21` [Example 267, [(1α,5α,6α)-3-[(S)-4-(2,3-Dihydro-benzo[1,4]dioxin-2-yl)-benzyl]-3-aza-bicyclo[3.1.0]hexane]-6-carboxylic acid]: the IC50 on human LTA4 hydrolase (setting [2]) is 0.3 nM; in test [1], 73 nM.

As to `NC(=O)N1C[C@@H]2C[C@H]1CN2Cc1ccc([C@H]2COc3cccnc3O2)cc1` [Example 268, (1S,4S)-5-[(S)-4-(2,3-Dihydro-[1,4]dioxino[2,3-b]pyridin-3-yl)-benzyl]-2,5-diaza-bicyclo[2.2.1]heptane-2-carboxylic acid amide], the 50% inhibitory concentration (IC50) was determined as 0.11 nM on human LTA4 hydrolase (setting [2]) and 66 nM in test [1].

`OC1(c2ccccc2)CCN(Cc2ccc([C@H]3COc4cccnc4O3)cc2)CC1` [Example 269, 1-[(S)-4-(2,3-Dihydro-[1,4]dioxino[2,3-b]pyridin-3-yl)-benzyl]-4-phenyl-piperidin-4-ol]: the half-inhibitory concentration (IC50) worked out at 0.2 nM at human LTA4 hydrolase (setting [2]) and 36 nM in test [1].

For the compound `CC(=O)N1CC2CN(Cc3ccc([C@H]4COc5cccnc5O4)cc3)CC2C1` (stereo partly drawn) [Example 270, 1-{5-[(S)-4-(2,3-Dihydro-[1,4]dioxino[2,3-b]pyridin-3-yl)-benzyl]-hexahydro-pyrrolo[3,4-c]pyrrol-2-yl}-ethanone], the half-maximal inhibitory concentration (IC50) was determined as 0.14 nM at human LTA4 hydrolase (setting [2]) and 35 nM in test [1].

With `CC(=O)N1CC2CCC(C1)N2Cc1ccc([C@H]2COc3cccnc3O2)cc1` [Example 271, 1-{8-[(S)-4-(2,3-Dihydro-[1,4]dioxino[2,3-b]pyridin-3-yl)-benzyl]-3,8-diaza-bicyclo[3.2.1]oct-3-yl}-ethanone], the IC50 was 0.65 nM on human LTA4 hydrolase (setting [2]) and 110 nM in test [1].

As to `NC(=O)N1CC2CN(Cc3ccc([C@H]4COc5cccnc5O4)cc3)CC2C1` (stereo partly drawn) [Example 272, 5-[(S)-4-(2,3-Dihydro-[1,4]dioxino[2,3-b]pyridin-3-yl)-benzyl]-hexahydro-pyrrolo[3,4-c]pyrrole-2-carboxylic acid amide], the 50% inhibitory concentration (IC50) at human LTA4 hydrolase (setting [2]) amounted to 0.09 nM; in test [1] it was 71 nM.

For the compound `NC(=O)N[C@@H]1C[C@H]2CC[C@@H](C1)N2Cc1ccc([C@H]2COc3cccnc3O2)cc1` [Example 273, {(exo)-8-[(S)-4-(2,3-Dihydro-[1,4]dioxino[2,3-b]pyridin-3-yl)-benzyl]-8-aza-bicyclo[3.2.1]oct-3-yl}-urea], the values for the IC50 (on human LTA4 hydrolase; in test [1]) were 0.16 nM and 110 nM, respectively.

Take `NC(=O)COC1CCN(Cc2ccc([C@H]3COc4cccnc4O3)cc2)CC1` [Example 274, 2-{1-[(S)-4-(2,3-Dihydro-[1,4]dioxino[2,3-b]pyridin-3-yl)-benzyl]-piperidin-4-yloxy}-acetamide]: the values for the concentration for half-maximal inhibition (IC50) (at human LTA4 hydrolase (setting [2]); in test [1]) were 0.15 nM and 100 nM, respectively.

Turning to `O=S1(=O)CCCN(Cc2ccc([C@H]3COc4cccnc4O3)cc2)CC1` [Example 275, (S)-3-[4-(1,1-Dioxo-1lambda6-[1,4]thiazepan-4-ylmethyl)-phenyl]-2,3-dihydro-[1,4]dioxino[2,3-b]pyridine], the 50% inhibitory concentration (IC50) on human LTA4 hydrolase (setting [2]) is 0.7 nM; in test [1], 170 nM.

On to `CC1(O)CCN(Cc2ccc([C@H]3COc4cccnc4O3)cc2)CC1` [Example 276, 1-[(S)-4-(2,3-Dihydro-[1,4]dioxino[2,3-b]pyridin-3-yl)-benzyl]-4-methyl-piperidin-4-ol], for which the 50% inhibitory concentration (IC50) turned out to be 1.2 nM at human LTA4 hydrolase (setting [2]) and 240 nM in test [1].

As for `O=C(CO)N1C[C@@H]2C[C@H]1CN2Cc1ccc([C@H]2COc3cccnc3O2)cc1` [Example 277, 1-{(1S,4S)-5-[(S)-4-(2,3-Dihydro-[1,4]dioxino[2,3-b]pyridin-3-yl)-benzyl]-2,5-diaza-bicyclo[2.2.1]hept-2-yl}-2-hydroxy-ethanone], the 50% inhibitory concentration (IC50) worked out at 0.3 nM at human LTA4 hydrolase (setting [2]) and 65 nM in test [1].

The IC50 is the concentration needed to halve the response being measured.
